Consider 14 compounds from US20240116985A1, “STAPLED PEPTIDES AND METHODS THEREOF” (priority 2020, published 2024).

Like-named read-outs stand apart in the source and are kept apart here.

The nature of one data set: CHI Log D procedure. Format: physicochemical. Conditions: for chromatographic logD: pH 7.4, CHI Log D; for CHI Log D: pH 7.4.
In data set [1] the target is T1, full-length beta-Catenin (Uniprot ID P35222) (Homo sapiens, UniProt P35222).
T1 construct: 10 nM full-length beta-Catenin (Uniprot ID P35222)
T1 sequence (P35222 1-781): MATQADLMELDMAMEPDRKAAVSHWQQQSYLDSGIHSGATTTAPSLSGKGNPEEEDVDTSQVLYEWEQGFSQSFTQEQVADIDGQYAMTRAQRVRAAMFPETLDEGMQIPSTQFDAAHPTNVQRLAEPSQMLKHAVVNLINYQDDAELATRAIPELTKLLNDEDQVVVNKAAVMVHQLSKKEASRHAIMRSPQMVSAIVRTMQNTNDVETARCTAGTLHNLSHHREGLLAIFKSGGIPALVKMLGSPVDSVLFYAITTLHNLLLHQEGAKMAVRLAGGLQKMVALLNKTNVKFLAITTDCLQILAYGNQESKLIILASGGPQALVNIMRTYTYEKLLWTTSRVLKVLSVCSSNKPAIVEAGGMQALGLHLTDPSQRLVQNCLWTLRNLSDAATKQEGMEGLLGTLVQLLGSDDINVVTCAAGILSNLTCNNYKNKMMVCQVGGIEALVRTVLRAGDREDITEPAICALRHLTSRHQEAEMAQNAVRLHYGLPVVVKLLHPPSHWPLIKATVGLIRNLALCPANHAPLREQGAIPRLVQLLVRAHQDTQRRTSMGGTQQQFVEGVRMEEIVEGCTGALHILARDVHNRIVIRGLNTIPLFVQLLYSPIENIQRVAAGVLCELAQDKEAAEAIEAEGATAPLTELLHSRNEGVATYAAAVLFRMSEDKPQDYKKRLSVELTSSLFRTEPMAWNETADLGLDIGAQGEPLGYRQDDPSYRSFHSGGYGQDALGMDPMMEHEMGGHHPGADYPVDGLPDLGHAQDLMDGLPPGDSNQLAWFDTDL
Nature of the data set: Fluorescence polarization IC50 (beta-catenin / 5FAM-TCF4 10-53 competition). In kind it is binding. In general terms: Polarisation of emitted light reports the rotation of a fluorescent probe.

[2] abbreviates: Table E2-1, read-out: beta-Catenin FP IC50.
[3] abbreviates: fluorescence polarization, beta-catenin, read-out: FP EC50.

As for `CC(=O)N1CCC[C@]12CC=CCCCC1(CCCC=CCCCCCC[C@@](C)(C(=O)N[C@@H](Cc3ccccc3)C(=O)N[C@@H](Cc3c[nH]c4ccccc34)C(=O)N[C@@H](CCC(N)=O)C(N)=O)NC(=O)[C@H](C(C)C)NC(=O)[C@H](Cc3ccccc3)NC(=O)[C@H](C)NC(=O)[C@H](C)NC(=O)[C@@H](CCC(=O)O)NC(=O)[C@H](CC(=O)O)NC1=O)NC(=O)[C@H](C)NC(=O)[C@H](CC(=O)O)NC2=O` (stereo partly drawn) [I-182, Ac-PL3-Asp-Ala-B5-Asp-DGlu-Ala-Ala-Phe-Val-S8-Phe-Trp-Gln-NH2], the chromatographic logD – broadly, lipophilicity estimated from chromatographic retention – in the data set “CHI Log D procedure” turned out to be 2.07. In data set [1] (setting [2]), the IC50 stood at 2.8 µM.
Take `CC(=O)N1CCC[C@]12CC=CCCCC1(CCCC=CCCCCCC[C@@](C)(C(=O)N[C@@H](Cc3ccccc3)C(=O)N[C@@H](Cc3ccc4ccccc4c3)C(=O)N[C@@H](CCC(N)=O)C(N)=O)NC(=O)[C@H](C(C)C)NC(=O)[C@H](Cc3ccc(F)c(F)c3)NC(=O)[C@H](C)NC(=O)[C@H](C)NC(=O)[C@H](CCC(=O)O)NC(=O)[C@H](CC(=O)O)NC1=O)NC(=O)[C@H](C)NC(=O)[C@H](CC(=O)O)NC2=O` (stereo partly drawn) [I-184, Ac-PL3-Asp-Ala-B5-Asp-Glu-Ala-Ala-34FF-Val-S8-Phe-2NapA-Gln-NH2]: the chromatographic logD in the data set “CHI Log D procedure” is 2.27. Besides, the IC50 in data set [1] (setting [2]) was 3.11 µM.
On to `CC(=O)N1CCC[C@]12CC=CCCCC1(CCCC=CCCCCCC[C@@](C)(C(=O)N[C@@H](Cc3ccccc3)C(=O)N[C@@H](Cc3c[nH]c4ccccc34)C(=O)N[C@@H](C)C(N)=O)NC(=O)[C@H](C)NC(=O)[C@H](Cc3ccccc3)NC(=O)[C@H](C)NC(=O)[C@H](C)NC(=O)[C@H](CCC(=O)O)NC(=O)[C@H](CC(=O)O)NC1=O)NC(=O)[C@H](C)NC(=O)[C@H](CC(=O)O)NC2=O` (stereo partly drawn) [I-187, Ac-PL3-Asp-Ala-B5-Asp-Glu-Ala-Ala-Phe-Ala-S8-Phe-Trp-Ala-NH2], for which the “CHI Log D” value in the data set “CHI Log D procedure” is recorded as 2.083. The IC50 in data set [1] (setting [2]) and in data set [1] (setting [3]) was 3.32 µM each time.
As to `CC(=O)N1CCC[C@]12CC=CCCCC1(CCCC=CCCCCCC[C@@](C)(C(=O)N[C@@H](Cc3ccccc3)C(=O)N[C@@H](Cc3c[nH]c4ccccc34)C(=O)N[C@@H](CCC(N)=O)C(N)=O)NC(=O)[C@H](C(C)C)NC(=O)[C@H](Cc3ccccc3)NC(=O)[C@H](C)NC(=O)[C@H](C)NC(=O)[C@H](CCC(=O)O)NC(=O)[C@H](CC(N)=O)NC1=O)NC(=O)[C@H](C)NC(=O)[C@H](CC(=O)O)NC2=O` (stereo partly drawn) [I-198, Ac-PL3-Asp-Ala-B5-Asn-Glu-Ala-Ala-Phe-Val-S8-Phe-Trp-Gln-NH2], the chromatographic logD in “CHI Log D procedure” was found to be 2.37. Also, the IC50 in data set [1] (setting [2]) came out at 5 µM.
In the case of `CC(=O)N1CCC[C@]12CC=CCCCC1(CCCC=CCCCCCC[C@@](C)(C(=O)N[C@@H](Cc3cccc(F)c3)C(=O)N[C@@H](Cc3c[nH]c4ccccc34)C(=O)N[C@@H](CCC(N)=O)C(N)=O)NC(=O)[C@H](C(C)C)NC(=O)[C@H](Cc3ccccc3)NC(=O)[C@H](C)NC(=O)[C@H](C)NC(=O)[C@H](CC(=O)O)NC(=O)[C@H](CC(=O)O)NC1=O)NC(=O)[C@H](C)NC(=O)[C@H](CC(=O)O)NC2=O` (stereo partly drawn) [I-260, Ac-PL3-Asp-Ala-B5-Asp-Asp-Ala-Ala-Phe-Val-S8-3FF-Trp-Gln-NH2], the chromatographic logD in the data set “CHI Log D procedure” was 2.06. Also, in data set [1] (setting [2]), the IC50 worked out at 5 µM.
On to `CC(=O)N1CCC[C@]12CC=CCCCC1(CCCC=CCCCCCC[C@@](C)(C(=O)N[C@@H](Cc3ccc(F)cc3)C(=O)N[C@@H](Cc3c[nH]c4ccccc34)C(=O)N[C@@H](CCC(N)=O)C(N)=O)NC(=O)[C@H](C(C)C)NC(=O)[C@H](Cc3ccccc3)NC(=O)[C@H](C)NC(=O)[C@H](C)NC(=O)[C@H](CC(=O)O)NC(=O)[C@H](CC(=O)O)NC1=O)NC(=O)[C@H](C)NC(=O)[C@H](CC(=O)O)NC2=O` (stereo partly drawn) [I-261, Ac-PL3-Asp-Ala-B5-Asp-Asp-Ala-Ala-Phe-Val-S8-4FF-Trp-Gln-NH2], for which the chromatographic logD in “CHI Log D procedure” worked out at 2.01. Further, the IC50 in data set [1] (setting [2]) stood at 5 µM.
In “CHI Log D procedure”, `CC(=O)N1CCC[C@]12CC=CCCCC1(CCCC=CCCCCCC[C@@](C)(C(=O)N[C@@H](Cc3ccccc3)C(=O)N[C@@H](Cc3c[nH]c4ccccc34)C(=O)N[C@@H](CCC(N)=O)C(N)=O)NC(=O)[C@H](C(C)C)NC(=O)[C@H](Cc3ccc(F)cc3)NC(=O)[C@H](C)NC(=O)[C@H](C)NC(=O)[C@H](CC(=O)O)NC(=O)[C@H](CC(=O)O)NC1=O)NC(=O)[C@H](C)NC(=O)[C@H](CC(=O)O)NC2=O` (stereo partly drawn) [I-266, Ac-PL3-Asp-Ala-B5-Asp-Asp-Ala-Ala-4FF-Val-S8-Phe-Trp-Gln-NH2] displayed a chromatographic logD of 2.02. In addition, the IC50 in data set [1] (setting [2]) came to 5 µM.
For the compound `CC(=O)N1CCC[C@]12CC=CCCCC1(CCCC=CCCCCCC[C@@](C)(C(=O)N[C@@H](Cc3ccccc3)C(=O)N[C@@H](Cc3c[nH]c4ccccc34)C(=O)N[C@@H](CCC(N)=O)C(N)=O)NC(=O)[C@H](C(C)C)NC(=O)[C@H](Cc3ccccc3)NC(=O)[C@H](C)NC(=O)[C@H](C)NC(=O)[C@H](Cc3ccccn3)NC(=O)[C@H](CC(=O)O)NC1=O)NC(=O)[C@H](C)NC(=O)[C@H](CC(=O)O)NC2=O` (stereo partly drawn) [I-270, Ac-PL3-Asp-Ala-B5-Asp-2PyrA-Ala-Ala-Phe-Val-S8-Phe-Trp-Gln-NH2], in “CHI Log D procedure”, the chromatographic logD was determined as 2.5. Besides, in data set [1] (setting [2]), the IC50 came out at 5 µM.
Take `CC(=O)N1CCC[C@]12CC=CCCCC1(CCCC=CCCCCCC[C@@](C)(C(=O)N[C@@H](Cc3ccccc3)C(=O)N[C@@H](Cc3c[nH]c4ccccc34)C(=O)N[C@@H](C)C(N)=O)NC(=O)[C@H](C)NC(=O)[C@H](Cc3ccccc3)NC(=O)[C@H](C)NC(=O)[C@H](C)NC(=O)[C@H](CC(=O)O)NC(=O)[C@H](CC(=O)O)NC1=O)NC(=O)[C@H](C)NC(=O)[C@H](CC(=O)O)NC2=O` (stereo partly drawn) [I-286, Ac-PL3-Asp-Ala-B5-Asp-Asp-Ala-Ala-Phe-Ala-S8-Phe-Trp-Ala-NH2]: in “CHI Log D procedure”, the chromatographic logD is 2.01. In addition, in data set [1] (setting [2]), the IC50 worked out at 4.48 µM.
In the case of `CC(=O)N1CCC[C@]12CC=CCCCC1(CCCC=CCCCCCC[C@@](C)(C(=O)N[C@@H](Cc3ccccc3)C(=O)N[C@@H](Cc3c[nH]c4ccccc34)C(N)=O)NC(=O)[C@H](C(C)C)NC(=O)[C@H](Cc3ccccc3)NC(=O)[C@H](C)NC(=O)[C@H](C)NC(=O)[C@H](CC(=O)O)NC(=O)[C@H](CC(=O)O)NC1=O)NC(=O)[C@H](C)NC(=O)[C@H](CC(=O)O)NC2=O` (stereo partly drawn) [I-290, Ac-PL3-Asp-Ala-B5-Asp-Asp-Ala-Ala-Phe-Val-S8-Phe-Trp-NH2], the “CHI Log D” value in “CHI Log D procedure” worked out at 2.271. The IC50 in data set [1] (setting [2]) and in data set [1] (setting [3]) was 3.29 µM each time.
As to `CC(=O)N1CCC[C@]12CC=CCCCC1(CCCC=CCCCCCC[C@@](C)(C(=O)N[C@@H](Cc3ccccc3)C(=O)N[C@@H](Cc3c[nH]c4ccccc34)C(=O)N[C@@H](CCC(N)=O)C(N)=O)NC(=O)[C@H](C(C)C)NC(=O)[C@H](Cc3cccc(Cl)c3)NC(=O)[C@H](C)NC(=O)[C@H](C)NC(=O)[C@H](CC(=O)O)NC(=O)[C@H](CC(=O)O)NC1=O)NC(=O)[C@H](C)NC(=O)[C@H](CC(=O)O)NC2=O` (stereo partly drawn) [I-307, Ac-PL3-Asp-Ala-B5-Asp-Asp-Ala-Ala-3C1F-Val-S8-Phe-Trp-Gln-NH2], the “CHI Log D” value in “CHI Log D procedure” was 2.055. Moreover, the IC50 in data set [1] (setting [2]) and in data set [1] (setting [3]) was 4.2 µM in each case.
In the data set “CHI Log D procedure”, `CC(=O)N1CCC[C@]12CC=CCCCC1(CCCC=CCCCCCC[C@@](C)(C(=O)N[C@@H](Cc3ccccc3)C(=O)N[C@@H](Cc3c[nH]c4ccccc34)C(=O)N[C@@H](CCC(N)=O)C(N)=O)NC(=O)[C@H](C(C)C)NC(=O)[C@H](Cc3ccccc3F)NC(=O)[C@H](C)NC(=O)[C@H](C)NC(=O)[C@H](CC(=O)O)NC(=O)[C@H](CC(=O)O)NC1=O)NC(=O)[C@H](C)NC(=O)[C@H](CC(=O)O)NC2=O` (stereo partly drawn) [I-317, Ac-PL3-Asp-Ala-B5-Asp-Asp-Ala-Ala-2FF-Val-S8-Phe-Trp-Gln-NH2] registered a chromatographic logD of 2.02. In data set [1] (setting [2]), the IC50 was 5 µM.
Take `CC(=O)N1CCC[C@]12CC=CCCCC1(CCCC=CCCCCCC[C@@](C)(C(=O)N[C@@H](Cc3ccccc3)C(=O)N[C@@H](Cc3csc4ccccc34)C(=O)N[C@@H](CCC(N)=O)C(N)=O)NC(=O)[C@H](C)NC(=O)[C@H](Cc3ccccc3C)NC(=O)[C@H](C)NC(=O)[C@H](C)NC(=O)[C@H](CC(=O)O)NC(=O)[C@H](CC(=O)O)NC1=O)NC(=O)[C@H](C)NC(=O)[C@H](CC(=O)O)NC2=O` (stereo partly drawn) [I-366, Ac-PL3-Asp-Ala-B5-Asp-Asp-Ala-Ala-2MeF-Ala-S8-Phe-BztA-Gln-NH2]: in “CHI Log D procedure”, the “CHI Log D” value is recorded as 2.084. Besides, the IC50 in data set [1] (setting [2]) and in data set [1] (setting [3]) was 1.44 µM each time.
In turn, `CC(=O)N1CCC[C@]12CC=CCCCC1(CCCC=CCCCCCC[C@@](C)(C(=O)N[C@@H](Cc3ccccc3C)C(=O)N[C@@H](Cc3csc4ccccc34)C(=O)N[C@@H](CCC(N)=O)C(N)=O)NC(=O)[C@H](C)NC(=O)[C@H](Cc3ccccc3)NC(=O)[C@H](C)NC(=O)[C@H](C)NC(=O)[C@H](CC(=O)O)NC(=O)[C@H](CC(=O)O)NC1=O)NC(=O)[C@H](C)NC(=O)[C@H](CC(=O)O)NC2=O` (stereo partly drawn) [I-367, Ac-PL3-Asp-Ala-B5-Asp-Asp-Ala-Ala-Phe-Ala-S8-2MeF-BztA-Gln-NH2] gave a chromatographic logD in the data set “CHI Log D procedure” of 2.15. The IC50 in data set [1] (setting [2]) came out at 0.177 µM.
